The values that follow come from patent US7763728B2, “Tetrahydropyridothiophenes” (4SC AG, priority 2005, dated 2010).

pIC50: −log10 of the molar value.

Test [1] deals with RKO (RKOp27) human colon adenocarcinoma cells. The test can be described thus: Alamar Blue cell viability assay, anti-proliferative/cytotoxic activity on proliferating (uninduced) RKOp27 cells. The format is cell-based. As to conditions: 72 hours incubation, absence of the inducer Ponasterone A, read-out: IC50 RKO p27 uninduced (proliferating). Summed up:
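RKOp27 subclones seeded at 5000 cells/well, compounds added after 24 h in DMEM/10% FCS, quadruplicates, 72 h at 37 °C, 5% CO2. Alamar Blue fluorescence (ex 544/em 590 nm) normalised to untreated cells (1% DMSO medium) as 100%; IC50 from concentration-effect curves.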
In general terms: Alamar Blue is a resazurin reagent that responds to reducing activity.

The subject of test [2] is RKO colon adenocarcinoma cells (RKOp27) arrested by the expression of ectopic p27Kip1. The test can be described thus: Alamar Blue cell viability assay on RKOp27 cells arrested by p27Kip1 expression induced by Ponasterone A. The test is classed as cell-based. As to conditions: Homo sapiens, 72 hours incubation, 10 μM Ponasterone A, read-out: IC50 RKO p27 induced (arrested). The method, boiled down:
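RKOp27 cells, 15000/well, held in DMEM with 10% FCS and with or without 10 μM Ponasterone A to induce p27Kip1 arrest. Compound dilutions added 24 h after seeding, then 72 h at 37 °C in quadruplicate. Alamar Blue fluorescence (544/590 nm) gave % viability relative to untreated cells.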

`COc1ccccc1CCC(=O)Nc1sc2c(c1C#N)CCN(C(=O)CCc1cccnc1)C2` [Example 1, N-[3-Cyano-6-(3-pyridin-3-yl-propanoyl)-4,5,6,7-tetrahydro-thieno[2,3-c]pyridin-2-yl]-3-(2-methoxy-phenyl)-propionamide]: the pIC50 in test [1] is no less than 6.52; in test [2], less than 4.00.

In the case of `CCOc1ccccc1C(C)CC(=O)Nc1sc2c(c1C#N)CCN(C(=O)Cn1cc(C)nc1C)C2` (racemic) [Example 145, (RS)—N-{3-Cyano-6-[2-(2,4-dimethyl-imidazol-1-yl)-ethanoyl]-4,5,6,7-tetrahydro-thieno[2,3-c]pyridin-2-yl}-3-(2-ethoxy-phenyl)-butyramide], the negative-log IC50 (pIC50) in test [1] is no less than 6.52; in test [2], no more than 5.00.

Take `COc1ccc(OC)c(CCC(=O)Nc2sc3c(c2C#N)CCN(C(=O)Cc2cccnc2)C3)c1` [Example 36, N-[3-Cyano-6-(2-pyridin-3-yl-ethanoyl)-4,5,6,7-tetrahydro-thieno[2,3-c]pyridin-2-yl]-3-(2,5-dimethoxy-phenyl)-propionamide]: the pIC50 in test [1] is 5.70 to 6.52; in test [2], less than 4.00.

As to `COc1ccc(C)cc1CCC(=O)Nc1sc2c(c1C#N)CCN(C(=O)Cc1cccnc1)C2` [Example 37, N-[3-Cyano-6-(2-pyridin-3-yl-ethanoyl)-4,5,6,7-tetrahydro-thieno[2,3-c]pyridin-2-yl]-3-(2-methoxy-5-methyl-phenyl)-propionamide], the pIC50 in test [1] was no less than 6.52; in test [2], less than 4.00.

Regarding `CCOc1ccccc1CCC(=O)Nc1sc2c(c1C#N)CCN(C(=O)Cn1cnc(C)c1)C2` [Example 140, N-{3-Cyano-6-[2-(4-methyl-imidazol-1-yl)-ethanoyl]-4,5,6,7-tetrahydro-thieno[2,3-c]pyridin-2-yl}-3-(2-ethoxy-phenyl)-propionamide], the negative-log IC50 (pIC50) in test [1] was no less than 6.52; in test [2] it was no more than 4.40.

With `COc1cccc(CCC(=O)Nc2sc3c(c2C#N)CCN(C(=O)Cn2ccnc2C)C3)c1` [Example 129, N-{3-Cyano-6-[2-(2-methyl-imidazol-1-yl)-ethanoyl]-4,5,6,7-tetrahydro-thieno[2,3-c]pyridin-2-yl}-3-(3-methoxy-phenyl)-propionamide], the pIC50 is 5.70 to 6.52 in test [1] and no more than 4.40 in test [2].

In the case of `COc1cccc(CCC(=O)Nc2sc3c(c2C#N)CCN(C(=O)Cn2ccnc2)C3)c1` [Example 55, N-[3-Cyano-6-(2-imidazol-1-yl-ethanoyl)-4,5,6,7-tetrahydro-thieno[2,3-c]pyridin-2-yl]-3-(3-methoxy-phenyl)-propionamide], the results for the negative-log IC50 (pIC50) in test [1] and in test [2] were 5.70 to 6.52 and no more than 4.40, respectively.

As for `COc1ccccc1C(C)CC(=O)Nc1sc2c(c1C#N)CCN(C(=O)Cn1ccnc1C)C2` (racemic) [Example 127, (RS)—N-{3-Cyano-6-[2-(2-methyl-imidazol-1-yl)-ethanoyl]-4,5,6,7-tetrahydro-thieno[2,3-c]pyridin-2-yl}-3-(2-methoxy-phenyl)-butyramide], the negative logarithm of the IC50 (pIC50) is no less than 6.52 in test [1] and no more than 4.40 in test [2].

In the case of `CCOc1ccccc1CCC(=O)Nc1sc2c(c1C#N)CCN(C(=O)CCc1ccccn1)C2` [Example 17, N-[3-Cyano-6-(3-pyridin-2-yl-propanoyl)-4,5,6,7-tetrahydro-thieno[2,3-c]pyridin-2-yl]-3-(2-ethoxy-phenyl)-propionamide], the pIC50 in test [1] is no less than 6.52; in test [2], no more than 4.40.

As to `COc1ccc(C)cc1CCC(=O)Nc1sc2c(c1C#N)CCN(C(=O)CCc1ccncn1)C2` [Example 38, N-[3-Cyano-6-(3-pyrimidin-4-yl-propanoyl)-4,5,6,7-tetrahydro-thieno[2,3-c]pyridin-2-yl]-3-(2-methoxy-5-methyl-phenyl)-propionamide], the figures for the pIC50 in test [1] and in test [2] were 5.70 to 6.52 and less than 4.00, respectively.

With `COC(=O)CCC(=O)N1CCc2c(sc(NC(=O)CCc3ccccc3OC)c2C#N)C1` [Example 4, 4-{3-Cyano-2-[3-(2-methoxy-phenyl)-propanoylamino]-4,7-dihydro-5H-thieno[2,3-c]pyridin-6-yl}-4-oxo-butyric acid methyl ester], the results for the pIC50 in test [1] and in test [2] were 5.70 to 6.52 and less than 4.00, respectively.

Regarding `COc1ccc(C)cc1CCC(=O)Nc1sc2c(c1C#N)CCN(C(=O)CCn1ccnc1C)C2` [Example 110, N-{3-Cyano-6-[3-(2-methyl-imidazol-1-yl)-propanoyl]-4,5,6,7-tetrahydro-thieno[2,3-c]pyridin-2-yl}-3-(2-methoxy-5-methyl-phenyl)-propionamide], the values for the pIC50 in test [1] and in test [2] were 5.70 to 6.52 and no more than 5.00, respectively.

For `COc1ccc(C)cc1CCC(=O)Nc1sc2c(c1C#N)CCN(C(=O)CCn1ccnc1)C2` [Example 40, N-[3-Cyano-6-(3-imidazol-1-yl-propanoyl)-4,5,6,7-tetrahydro-thieno[2,3-c]pyridin-2-yl]-3-(2-methoxy-5-methyl-phenyl)-propionamide], the pIC50 was 5.70 to 6.52 in test [1] and no more than 4.40 in test [2].

Consider `COc1ccccc1C(C)CC(=O)Nc1sc2c(c1C#N)CCN(C(=O)Cc1ccccn1)C2` (racemic) [Example 62, (RS)—N-[3-Cyano-6-(2-pyridin-2-yl-ethanoyl)-4,5,6,7-tetrahydro-thieno[2,3-c]pyridin-2-yl]-3-(2-methoxy-phenyl)-butyramide], for which the pIC50 is no less than 6.52 in test [1] and less than 4.00 in test [2].

On to `COc1ccc(C)cc1CCC(=O)Nc1sc2c(c1C#N)CCN(C(=O)Cn1ccnc1C)C2` [Example 132, N-{3-Cyano-6-[2-(2-methyl-imidazol-1-yl)-ethanoyl]-4,5,6,7-tetrahydro-thieno[2,3-c]pyridin-2-yl}-3-(2-methoxy-5-methyl-phenyl)-propionamide], for which the results for the negative-log IC50 (pIC50) in test [1] and in test [2] were no less than 6.52 and no more than 4.40, respectively.

For `CCOc1ccccc1CCC(=O)Nc1sc2c(c1C#N)CCN(C(=O)CCc1cccnc1)C2` [Example 22, N-[3-Cyano-6-(3-pyridin-3-yl-propanoyl)-4,5,6,7-tetrahydro-thieno[2,3-c]pyridin-2-yl]-3-(2-ethoxy-phenyl)-propionamide], the pIC50 in test [1] was no less than 6.52; in test [2], less than 4.00.

In the case of `COc1ccc(C)cc1CCC(=O)Nc1sc2c(c1C#N)CCN(C(=O)CCn1cc(C)nc1C)C2` [Example 163, N-{3-Cyano-6-[3-(2,4-dimethyl-imidazol-1-yl)-propanoyl]-4,5,6,7-tetrahydro-thieno[2,3-c]pyridin-2-yl}-3-(2-methoxy-5-methyl-phenyl)-propionamide], the pIC50 in test [1] was 5.70 to 6.52; in test [2], no more than 5.00.

On to `CCOc1ccccc1C(C)CC(=O)Nc1sc2c(c1C#N)CCN(C(=O)CCc1cccnc1)C2` (racemic) [Example 78, (RS)—N-[3-Cyano-6-(3-pyridin-3-yl-propanoyl)-4,5,6,7-tetrahydro-thieno[2,3-c]pyridin-2-yl]-3-(2-ethoxy-phenyl)-butyramide], for which the pIC50 was 5.70 to 6.52 in test [1] and no more than 4.40 in test [2].

Take `COCCOCC(=O)N1CCc2c(sc(NC(=O)CCc3ccccc3OC)c2C#N)C1` [Example 6, N-{3-Cyano-6-[2-(2-methoxy-ethoxy)-ethanoyl]-4,5,6,7-tetrahydro-thieno[2,3-c]pyridin-2-yl}-3-(2-methoxy-phenyl)-propionamide]: the pIC50 in test [1] was 5.70 to 6.52; in test [2], no more than 4.40.

For orientation: pIC50 means the IC50 on a negative log10 scale, so that one unit is a factor of ten.
